Reference: ChEMBL document CHEMBL1138956, “Synthesis and in vitro anti-tumor activity of N-{1-[(3-thioxo-5,6-dihydroimidazo[2,1-c][1,2,4]thiadiazol-7-ylthio)thiocarbonyl]-2-imidazolidene}arylsulfonamides” (2006)
Active and inactive are the calls of the source. The rule behind the calls is not given here.

How the values were obtained:
CCRF-CEM = assay: Antitumor activity against CCRF-CEM cell line; type: functional, cell-based; settings: Homo sapiens
KYSE-510 = assay: Antitumor activity against KYSE510 cell line after 96 hrs using crystal violet; type: functional; settings: Homo sapiens, KYSE-510, 96 h
RPMI-8226 = assay: Antitumor activity against RPMI8226 cell line; type: functional, cell-based; settings: Homo sapiens
HOP-92 = assay: Antitumor activity against HOP92 cell line; type: functional, cell-based; settings: Homo sapiens
HL-60 = assay: Antitumor activity against HL60(TB) cell line; type: functional, cell-based; settings: Homo sapiens
RXF 393 = assay: Antitumor activity against RXF393 cell line; type: functional, cell-based; settings: Homo sapiens
UO-31 = assay: Antitumor activity against UO31 cell line; type: functional, cell-based; settings: Homo sapiens
SF-539 = assay: Antitumor activity against SF539 cell line; type: functional, cell-based; settings: Homo sapiens
5637 = assay: Antitumor activity against 5637 cell line after 96 hrs using crystal violet; type: functional; settings: Homo sapiens, 5637, 96 h
SR = assay: Antitumor activity against SR cell line; type: functional, cell-based; settings: Homo sapiens
LOX IMVI = assay: Antitumor activity against LOXIMVI cell line; type: functional, cell-based; settings: Homo sapiens
SK-OV-3 = assay: Antitumor activity against SKOV3 cell line; type: functional, cell-based; settings: Homo sapiens
ACHN = assay: Antitumor activity against ACHN cell line; type: functional, cell-based; settings: Homo sapiens

| SMILES | GI50 (KYSE-510) | also measured |
| --- | --- | --- |
| O=S(=O)(NC1=NCCN1C(=S)SN1CCn2c1nsc2=S)c1cccc2ccccc12 | ≥ 20 µM | Activity (CCRF-CEM): Active; Activity (RPMI-8226): Active |
| COc1ccc(OC)c(S(=O)(=O)NC2=NCCN2C(=S)SN2CCn3c2nsc3=S)c1 | ≥ 20 µM |  |
| O=S(=O)(NC1=NCCN1C(=S)SN1CCn2c1nsc2=S)c1ccc(Br)cc1 | ≥ 20 µM | Activity (HOP-92): Active; Activity (RPMI-8226): Active |
| O=S(=O)(NC1=NCCN1C(=S)SN1CCn2c1nsc2=S)c1ccc(Cl)c(Cl)c1Cl | ≥ 20 µM |  |
| O=S(=O)(NC1=NCCN1C(=S)SN1CCn2c1nsc2=S)c1cc(Cl)cc(Cl)c1 | ≥ 20 µM |  |
| O=S(=O)(NC1=NCCN1C(=S)SN1CCn2c1nsc2=S)c1ccccc1Cl | ≥ 20 µM | Activity (HL-60): Active; Activity (CCRF-CEM): Active |
| Cc1cc(C)c(S(=O)(=O)NC2=NCCN2C(=S)SN2CCn3c2nsc3=S)c(C)c1 | ≥ 20 µM |  |
| CC(=O)Nc1ccc(S(=O)(=O)NC2=NCCN2C(=S)SN2CCn3c2nsc3=S)cc1 | ≥ 20 µM |  |
| O=S(=O)(NC1=NCCN1C(=S)SN1CCn2c1nsc2=S)c1ccc(C(F)(F)F)cc1 | ≥ 20 µM |  |
| O=S(=O)(NC1=NCCN1C(=S)SN1CCn2c1nsc2=S)c1cccc(Cl)c1 | ≥ 20 µM | Activity (RXF 393): Active; Activity (CCRF-CEM): Active |
| O=S(=O)(NC1=NCCN1C(=S)SN1CCn2c1nsc2=S)c1cccc(OC(F)(F)F)c1 | ≥ 20 µM | Activity (CCRF-CEM): Active; Activity (RPMI-8226): Active |
| O=S(=O)(NC1=NCCN1C(=S)SN1CCn2c1nsc2=S)c1ccc(Cl)cc1 | ≥ 20 µM | Activity (UO-31): Active; Activity (SF-539): Active |
| O=S(=O)(NC1=NCCN1C(=S)SN1CCn2c1nsc2=S)c1ccc(Cl)cc1Cl | ≥ 20 µM |  |
| O=[N+]([O-])c1ccc(S(=O)(=O)NC2=NCCN2C(=S)SN2CCn3c2nsc3=S)cc1 | ≥ 20 µM | GI50 5637: 3.67 µM |
| COc1cc(C)ccc1S(=O)(=O)NC1=NCCN1C(=S)SN1CCn2c1nsc2=S | ≥ 20 µM |  |
| O=S(=O)(NC1=NCCN1C(=S)SN1CCn2c1nsc2=S)c1ccc(Cl)c(Cl)c1 | ≥ 20 µM |  |
| COc1ccc(S(=O)(=O)NC2=NCCN2C(=S)SN2CCn3c2nsc3=S)cc1OC | ≥ 20 µM | Activity (RXF 393): Active |
| O=S(=O)(NC1=NCCN1C(=S)SN1CCn2c1nsc2=S)c1ccc(F)c(Cl)c1 | ≥ 20 µM |  |
| O=S(=O)(NC1=NCCN1C(=S)SN1CCn2c1nsc2=S)c1ccc2ccccc2c1 | ≥ 20 µM |  |
| O=S(=O)(NC1=NCCN1C(=S)SN1CCn2c1nsc2=S)c1ccc(OC(F)(F)F)cc1 | ≥ 20 µM | Activity (SR): Active; Activity (SF-539): Active |
| O=S(=O)(NC1=NCCN1C(=S)SN1CCn2c1nsc2=S)c1ccccc1 | ≥ 20 µM |  |
| O=S(=O)(NC1=NCCN1C(=S)SN1CCn2c1nsc2=S)c1ccc(Oc2ccccc2)cc1 | ≥ 20 µM | Activity (HL-60): Active; Activity (SR): Active |
| COc1ccc(S(=O)(=O)NC2=NCCN2C(=S)SN2CCn3c2nsc3=S)cc1 | ≥ 20 µM | Activity (UO-31): Active; Activity (RXF 393): Active |
| Cc1ccc(S(=O)(=O)NC2=NCCN2C(=S)SN2CCn3c2nsc3=S)cc1 | ≥ 20 µM | Activity (LOX IMVI): Active; Activity (SK-OV-3): Active |
| COc1cccc(S(=O)(=O)NC2=NCCN2C(=S)SN2CCn3c2nsc3=S)c1 | ≥ 20 µM | Activity (ACHN): Active; Activity (LOX IMVI): Active |
| O=S(=O)(NC1=NCCN1C(=S)SN1CCn2c1nsc2=S)c1ccc(-c2ccccc2)cc1 | ≥ 20 µM |  |
